In publication PMC10141844 (Archives of Virology, 2023):
Where “and” joins values, the source holds several entries; their conditions need not be identical. Equal entries are not always repeated. Entries after “also recorded” stand apart in the source; their conditions may differ.

Columns and labels:
[1] = Cell viability / MTT assay; type: cell-based, human; details: human, S10-3 human hepatoma cells
[2] = tested on: S10-3 human hepatoma cells; test: Cell viability / MTT assay; type: cell-based; details: highest concentration tolerated by S10-3 cells, MTT, 120 h
[3] = oral administration; cited from earlier work
[4] = in silico toxicity studies, cited from earlier work
HEV-1 RdRp = target: T1, HEV-1 RdRp (Hepatitis E virus genotype 1, UniProt P33424); test: Colorimetric RdRp polymerase assay; type: biochemical
T1 sequence (P33424 1199-1693 limits assumed): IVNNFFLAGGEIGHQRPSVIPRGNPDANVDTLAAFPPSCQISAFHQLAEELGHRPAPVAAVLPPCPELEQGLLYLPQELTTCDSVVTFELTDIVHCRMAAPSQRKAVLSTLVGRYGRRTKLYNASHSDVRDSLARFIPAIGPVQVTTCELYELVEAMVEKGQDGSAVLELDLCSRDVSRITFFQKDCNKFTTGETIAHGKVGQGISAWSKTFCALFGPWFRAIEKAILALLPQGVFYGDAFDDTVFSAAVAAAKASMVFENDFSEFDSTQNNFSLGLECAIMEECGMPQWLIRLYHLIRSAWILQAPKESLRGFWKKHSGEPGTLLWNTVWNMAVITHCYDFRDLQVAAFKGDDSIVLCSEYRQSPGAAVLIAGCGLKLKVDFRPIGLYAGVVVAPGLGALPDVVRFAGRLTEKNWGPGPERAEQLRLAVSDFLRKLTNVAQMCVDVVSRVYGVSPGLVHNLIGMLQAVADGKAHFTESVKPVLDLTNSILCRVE

HEV-1 helicase = target: T2, HEV-1 helicase (Hepatitis E virus genotype 1, UniProt P33424); test: Colorimetric ATPase assay of recombinant helicase; type: biochemical
T2 sequence (P33424 960-1204): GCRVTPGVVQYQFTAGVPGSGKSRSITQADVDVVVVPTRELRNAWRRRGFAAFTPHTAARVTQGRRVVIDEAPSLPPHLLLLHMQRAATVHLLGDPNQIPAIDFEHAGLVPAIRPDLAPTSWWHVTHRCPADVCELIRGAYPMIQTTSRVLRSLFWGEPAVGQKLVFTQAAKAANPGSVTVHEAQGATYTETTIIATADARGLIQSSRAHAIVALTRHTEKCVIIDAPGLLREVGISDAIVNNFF

HEV-1 [5] = test: ORF2 protein expression by immunofluorescence assay and western blot; type: cell-based, Hepatitis E virus; details: IFA and western blot, 72 h and 96 h post-transfection, RBV 3.1 µM, ART 23.4 µM
HEV-1 [6] = test: HEV-1 subgenomic replicon Renilla luciferase assay in S10-3 cells; type: cell-based, Hepatitis E virus; details: for HEV-1 inhibition (%): subgenomic replicon, at MNTD: RBV 3.12 µM, CQ 0.06 µM, HCQ 0.78 µM, ART 23.43 µM, 48 h

## C[C@H]1[C@H](OC(=O)CCC(=O)O)O[C@@H]2O[C@@]3(C)CC[C@H]4[C@H](C)CC[C@@H]1[C@@]24OO3 [ART, artesunate]
[1]
  CC50 at 120 h: 189 ± 14.1 µM
[2]
  MNTD, maximum nontoxic dose: 23.43 µM
[3]
  Elimination half-life: 21 to 72 min
  Tmax: less than one hour
[4]; if used in high doses for a long time
  Mutagenic, tumorigenic and hepatotoxic potential: moderately mutagenic, tumorigenic, and hepatotoxic
[4]
  Risk of reproductive or developmental toxicity: no risk
HEV-1 RdRp; 4.8 µM ART
  RdRp polymerase activity inhibition (%): 38%
HEV-1 RdRp; 78 µM ART
  RdRp polymerase activity inhibition (%): 40%
HEV-1 helicase
  Reversibility of helicase inhibition: reversible
HEV-1 helicase; 4.8 µM ART, 100 µM ATP
  Helicase ATPase activity inhibition (%): 23%
HEV-1 helicase; 78 µM ART, 100 µM ATP
  Helicase ATPase activity inhibition (%): 55% and ~ 55%
HEV-1 helicase; ATP pretreatment assay
  Mode of inhibition of helicase ATPase: competitive inhibitor
HEV-1 helicase; enzyme pretreated with ART
  Mode of inhibition of helicase ATPase: noncompetitive inhibitor
HEV-1 helicase; helicase pre-incubated with 19.5 µM ART 30 min, 50 µM ATP
  ATPase activity (%): 62%
HEV-1 helicase; helicase pre-incubated with 19.5 µM ART 30 min, 100 µM ATP
  ATPase activity (%): 75%
HEV-1 helicase; helicase pre-incubated with ATP 30 min before 19.5 µM ART, 50 µM ATP
  ATPase activity (%): ~ 79%
HEV-1 helicase; helicase pre-incubated with ATP 30 min before 19.5 µM ART, 100 µM ATP
  ATPase activity (%): 86%
HEV-1 [5]
  ORF2 protein levels: decreased ORF2 levels; also recorded: reduced ORF2 expression significantly
HEV-1 [6]; CC50/EC50
  TI for HEV-1, therapeutic index (CC50/EC50): 9.68
HEV-1 [6]
  HEV-1 inhibition (%): > 50%

## CCN(CC)CCCC(C)Nc1ccnc2cc(Cl)ccc12 (stereo not shown) [CQ, chloroquine]
[1]
  CC50 at 120 h: 4.77 ± 0.74 µM
[2]
  MNTD, maximum nontoxic dose: 0.06 µM
HEV-1 [6]
  HEV-1 inhibition (%): 23 ± 2%

## CCN(CCO)CCCC(C)Nc1ccnc2cc(Cl)ccc12 (stereo not shown) [HCQ, hydroxychloroquine]
[2]
  MNTD, maximum nontoxic dose: 0.78 µM

## NC(=O)c1ncn([C@@H]2O[C@H](CO)[C@@H](O)[C@H]2O)n1 [RBV, ribavirin]
[1]
  CC50 at 120 h: 39 ± 5.9 µM
[2]
  MNTD, maximum nontoxic dose: 3.12 µM
HEV-1 [5]
  ORF2 protein levels: decreased ORF2 levels; also recorded: reduced ORF2 expression significantly

## NC(=O)c1ncn([C@@H]2O[C@H](CO[P@@](=O)(O)O[P@](=O)(O)OP(=O)(O)O)[C@@H](O)[C@H]2O)n1 [RTP, Ribavirin triphosphate]
[1]
  CC50 at 120 h: 169 ± 1.6 µM
[2]
  MNTD, maximum nontoxic dose: 7.8 µM
HEV-1 RdRp; read-out: RdRp polymerase activity inhibition (%), 28 µM RTP (maximum)
  inhibition at 28 µM: 28%
HEV-1 helicase; 3.5 µM RTP, 100 µM ATP
  Helicase ATPase activity inhibition (%): 22%
